Laboratory results reported in ChEMBL document CHEMBL1770095, “Discovery of histone deacetylase 8 selective inhibitors” (Bioorg Med Chem Lett, 2011).

How the values were obtained:
[1] = biological target: Histone deacetylase 3/Nuclear receptor corepressor 2 (HDAC3/NCoR2) (Homo sapiens, UniProt O15379); assay: Inhibition of full length HDAC3/NCoR2 assessed as 7-amino-4-methylcoumarin release from fluorophore conjugated substrate after 5 mins by fluorescence assay; format: protein-complex assay
Histone deacetylase 8 = biological target: T1, Histone deacetylase 8 (Homo sapiens, UniProt Q9BY41); assay: Inhibition of full length HDAC8 assessed as 7-amino-4-methylcoumarin release from fluorophore conjugated substrate after 5 mins by fluorescence assay
T1 sequence (Q9BY41 whole entry): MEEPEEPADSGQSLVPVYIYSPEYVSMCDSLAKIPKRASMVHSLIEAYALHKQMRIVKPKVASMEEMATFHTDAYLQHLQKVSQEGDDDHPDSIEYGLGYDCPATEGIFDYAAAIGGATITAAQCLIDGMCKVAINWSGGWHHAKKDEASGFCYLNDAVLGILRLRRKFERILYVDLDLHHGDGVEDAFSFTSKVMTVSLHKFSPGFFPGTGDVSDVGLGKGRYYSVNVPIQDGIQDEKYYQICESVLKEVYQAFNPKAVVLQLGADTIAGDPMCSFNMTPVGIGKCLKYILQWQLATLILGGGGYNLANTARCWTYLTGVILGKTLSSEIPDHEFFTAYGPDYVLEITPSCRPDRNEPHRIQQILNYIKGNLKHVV

Histone deacetylase 2 = Histone deacetylase 2 (Homo sapiens, UniProt Q92769); assay: Inhibition of full length HDAC2 assessed as 7-amino-4-methylcoumarin release from fluorophore conjugated substrate after 5 mins by fluorescence assay
Chain of Histone deacetylase 2 (Q92769 whole entry): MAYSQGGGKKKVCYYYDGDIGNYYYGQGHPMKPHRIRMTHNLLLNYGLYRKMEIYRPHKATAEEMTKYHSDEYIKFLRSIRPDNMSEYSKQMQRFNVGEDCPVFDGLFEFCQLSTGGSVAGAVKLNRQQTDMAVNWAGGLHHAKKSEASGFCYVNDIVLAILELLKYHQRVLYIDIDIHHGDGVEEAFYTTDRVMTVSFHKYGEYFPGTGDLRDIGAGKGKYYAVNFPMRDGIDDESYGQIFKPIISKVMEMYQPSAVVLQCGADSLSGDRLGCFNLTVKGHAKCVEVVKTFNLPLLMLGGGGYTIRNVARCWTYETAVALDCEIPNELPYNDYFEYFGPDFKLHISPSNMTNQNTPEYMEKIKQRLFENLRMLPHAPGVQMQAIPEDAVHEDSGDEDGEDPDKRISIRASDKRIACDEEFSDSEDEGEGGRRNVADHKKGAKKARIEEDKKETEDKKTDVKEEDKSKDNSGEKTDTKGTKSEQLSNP

Chain of Histone deacetylase 3/Nuclear receptor corepressor 2 (HDAC3/NCoR2) (O15379 whole entry): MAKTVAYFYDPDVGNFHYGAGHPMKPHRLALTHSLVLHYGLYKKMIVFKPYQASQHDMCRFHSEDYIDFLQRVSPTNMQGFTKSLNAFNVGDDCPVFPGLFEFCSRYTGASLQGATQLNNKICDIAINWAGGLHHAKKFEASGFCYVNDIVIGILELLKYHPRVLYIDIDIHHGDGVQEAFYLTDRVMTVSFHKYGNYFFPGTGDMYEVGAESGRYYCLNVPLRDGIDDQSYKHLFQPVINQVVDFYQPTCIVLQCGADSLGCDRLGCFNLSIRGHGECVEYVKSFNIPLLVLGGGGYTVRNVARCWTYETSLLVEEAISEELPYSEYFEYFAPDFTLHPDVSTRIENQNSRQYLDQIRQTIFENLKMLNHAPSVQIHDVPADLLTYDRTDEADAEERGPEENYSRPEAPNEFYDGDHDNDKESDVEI
Chain of Histone deacetylase 3/Nuclear receptor corepressor 2 (HDAC3/NCoR2) (Q9Y618 whole entry, further chain): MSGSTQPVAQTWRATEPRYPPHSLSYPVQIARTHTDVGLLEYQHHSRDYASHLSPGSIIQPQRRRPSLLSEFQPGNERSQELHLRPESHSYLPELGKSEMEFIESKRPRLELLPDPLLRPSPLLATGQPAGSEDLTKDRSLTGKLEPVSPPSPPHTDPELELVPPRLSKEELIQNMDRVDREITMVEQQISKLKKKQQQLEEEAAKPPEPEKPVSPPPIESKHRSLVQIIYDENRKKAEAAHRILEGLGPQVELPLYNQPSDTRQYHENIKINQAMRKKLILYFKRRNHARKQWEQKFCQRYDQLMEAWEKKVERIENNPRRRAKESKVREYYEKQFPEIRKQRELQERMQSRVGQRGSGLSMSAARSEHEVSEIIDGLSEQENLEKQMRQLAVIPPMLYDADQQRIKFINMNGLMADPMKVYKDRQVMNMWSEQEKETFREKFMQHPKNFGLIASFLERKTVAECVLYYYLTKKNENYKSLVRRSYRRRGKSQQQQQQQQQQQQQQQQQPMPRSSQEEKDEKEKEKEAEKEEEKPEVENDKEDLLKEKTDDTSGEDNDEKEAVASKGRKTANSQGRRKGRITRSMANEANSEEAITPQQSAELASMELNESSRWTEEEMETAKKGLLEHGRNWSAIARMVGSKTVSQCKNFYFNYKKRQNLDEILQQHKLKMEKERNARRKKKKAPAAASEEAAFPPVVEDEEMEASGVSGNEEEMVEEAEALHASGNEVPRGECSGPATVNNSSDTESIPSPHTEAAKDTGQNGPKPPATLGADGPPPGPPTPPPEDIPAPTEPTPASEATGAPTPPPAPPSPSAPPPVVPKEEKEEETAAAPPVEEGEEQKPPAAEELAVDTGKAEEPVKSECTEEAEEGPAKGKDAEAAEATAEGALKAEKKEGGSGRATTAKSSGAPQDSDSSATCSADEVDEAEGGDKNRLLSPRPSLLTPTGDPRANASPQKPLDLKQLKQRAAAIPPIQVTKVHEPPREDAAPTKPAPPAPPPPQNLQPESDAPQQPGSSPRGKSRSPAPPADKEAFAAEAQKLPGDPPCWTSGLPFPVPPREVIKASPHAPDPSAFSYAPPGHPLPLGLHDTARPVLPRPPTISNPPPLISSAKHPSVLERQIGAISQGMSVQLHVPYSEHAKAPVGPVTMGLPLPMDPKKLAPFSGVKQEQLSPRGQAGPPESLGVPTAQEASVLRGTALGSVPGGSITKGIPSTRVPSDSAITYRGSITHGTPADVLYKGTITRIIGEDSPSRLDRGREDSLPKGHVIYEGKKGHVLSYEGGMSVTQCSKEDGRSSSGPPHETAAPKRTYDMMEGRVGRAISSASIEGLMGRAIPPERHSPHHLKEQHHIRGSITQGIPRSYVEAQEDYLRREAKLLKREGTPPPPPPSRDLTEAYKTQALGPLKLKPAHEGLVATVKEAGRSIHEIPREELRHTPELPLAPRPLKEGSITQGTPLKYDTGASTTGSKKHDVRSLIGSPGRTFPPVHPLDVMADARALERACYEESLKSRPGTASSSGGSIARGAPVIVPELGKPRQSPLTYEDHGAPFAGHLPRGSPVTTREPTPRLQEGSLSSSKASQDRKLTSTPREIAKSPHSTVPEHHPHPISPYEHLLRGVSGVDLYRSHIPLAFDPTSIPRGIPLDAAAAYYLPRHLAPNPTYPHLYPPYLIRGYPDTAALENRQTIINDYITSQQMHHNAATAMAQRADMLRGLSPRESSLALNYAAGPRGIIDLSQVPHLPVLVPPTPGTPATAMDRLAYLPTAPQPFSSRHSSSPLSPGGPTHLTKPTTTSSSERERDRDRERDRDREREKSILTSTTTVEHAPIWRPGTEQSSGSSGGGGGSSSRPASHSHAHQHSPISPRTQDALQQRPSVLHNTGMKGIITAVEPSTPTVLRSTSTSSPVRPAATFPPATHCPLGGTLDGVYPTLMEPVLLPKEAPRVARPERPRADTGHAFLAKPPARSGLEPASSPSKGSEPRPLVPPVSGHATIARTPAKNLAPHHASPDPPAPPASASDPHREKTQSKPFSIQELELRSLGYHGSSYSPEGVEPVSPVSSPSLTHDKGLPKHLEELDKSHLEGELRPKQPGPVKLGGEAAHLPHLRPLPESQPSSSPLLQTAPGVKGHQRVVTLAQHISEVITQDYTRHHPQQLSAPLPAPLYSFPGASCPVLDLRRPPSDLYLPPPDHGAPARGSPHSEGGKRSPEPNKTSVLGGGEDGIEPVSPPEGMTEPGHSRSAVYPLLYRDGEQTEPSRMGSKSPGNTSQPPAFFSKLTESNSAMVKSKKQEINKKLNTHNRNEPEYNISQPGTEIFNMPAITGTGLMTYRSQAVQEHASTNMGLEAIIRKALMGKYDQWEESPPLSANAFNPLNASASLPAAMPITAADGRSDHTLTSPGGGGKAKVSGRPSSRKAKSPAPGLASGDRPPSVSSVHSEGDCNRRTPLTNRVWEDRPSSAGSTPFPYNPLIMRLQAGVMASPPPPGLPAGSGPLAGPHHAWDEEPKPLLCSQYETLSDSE

IC50 [1] [µM] | IC50 (Histone deacetylase 8) [µM] | IC50 (Histone deacetylase 2) [µM] | Compound
0.0031 | 0.29 | 0.0021 | C#CCOc1ccc(/C=N/NC(=O)CCCCCCC(=O)NO)cc1
18 | 0.052 | 20 | O=C(NO)c1cccc(C(=O)N/N=C/c2ccccc2)c1
15 | 0.023 | 3.6 | O=C1CC/C=C/CCC(=O)N(Cc2cccc(/C=N/NC(=O)c3cccc(C(=O)NO)c3)c2)C[C@@H](c2ccccc2)O1
6.2 | 0.029 | 6.3 | C#CCOc1ccc(/C=N/NC(=O)c2cccc(C(=O)NO)c2)cc1
15 | 0.11 | 5 | O=C1CC/C=C/CCC(=O)N(Cc2cccc(/C=N/NC(=O)c3cccc(C(=O)NO)c3)c2)C[C@H](c2ccccc2)O1
